# Article PMC9487755 (Epigenetics, 2021)
# Read-outs that look alike come from different tables or passages of the source.
# T1: C. difficile CamA (Clostridioides difficile, UniProt Q183J3)
# T1 sequence (Q183J3 1-577): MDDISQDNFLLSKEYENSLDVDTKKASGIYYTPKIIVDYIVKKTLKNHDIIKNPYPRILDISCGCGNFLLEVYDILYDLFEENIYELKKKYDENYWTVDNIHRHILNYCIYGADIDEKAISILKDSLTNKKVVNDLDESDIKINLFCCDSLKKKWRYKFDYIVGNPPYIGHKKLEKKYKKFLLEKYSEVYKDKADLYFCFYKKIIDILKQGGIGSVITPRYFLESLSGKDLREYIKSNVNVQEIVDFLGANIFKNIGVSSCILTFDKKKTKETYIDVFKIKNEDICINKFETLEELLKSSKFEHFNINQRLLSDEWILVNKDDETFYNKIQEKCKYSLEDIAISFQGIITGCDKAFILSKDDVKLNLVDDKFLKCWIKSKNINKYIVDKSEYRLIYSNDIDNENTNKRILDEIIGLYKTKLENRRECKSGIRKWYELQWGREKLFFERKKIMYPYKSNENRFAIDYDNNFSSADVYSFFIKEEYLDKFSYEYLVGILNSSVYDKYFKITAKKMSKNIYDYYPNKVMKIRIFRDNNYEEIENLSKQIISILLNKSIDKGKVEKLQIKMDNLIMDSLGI
# T2: CamA (Clostridioides difficile, UniProt Q183J3)
# T2 sequence (Q183J3 1-577): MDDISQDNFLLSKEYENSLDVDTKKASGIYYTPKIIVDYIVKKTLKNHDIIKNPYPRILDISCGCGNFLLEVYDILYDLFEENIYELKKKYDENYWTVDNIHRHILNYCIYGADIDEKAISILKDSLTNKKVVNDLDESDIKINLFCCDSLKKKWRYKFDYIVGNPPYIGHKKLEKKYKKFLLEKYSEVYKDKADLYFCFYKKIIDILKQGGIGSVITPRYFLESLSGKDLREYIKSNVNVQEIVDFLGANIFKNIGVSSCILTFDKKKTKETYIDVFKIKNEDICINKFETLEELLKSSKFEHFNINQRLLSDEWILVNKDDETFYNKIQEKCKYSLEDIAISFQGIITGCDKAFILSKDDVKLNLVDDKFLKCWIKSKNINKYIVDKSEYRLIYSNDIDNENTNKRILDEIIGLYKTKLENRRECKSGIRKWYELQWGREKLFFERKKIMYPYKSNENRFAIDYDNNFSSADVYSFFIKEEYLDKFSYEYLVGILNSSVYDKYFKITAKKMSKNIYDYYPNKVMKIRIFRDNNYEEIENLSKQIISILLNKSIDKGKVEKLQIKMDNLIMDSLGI
# T3: CamA (DNA adenine methyltransferase, plasmid pXC2184) (Clostridioides difficile, UniProt Q183J3 1-577)
# T3 sequence: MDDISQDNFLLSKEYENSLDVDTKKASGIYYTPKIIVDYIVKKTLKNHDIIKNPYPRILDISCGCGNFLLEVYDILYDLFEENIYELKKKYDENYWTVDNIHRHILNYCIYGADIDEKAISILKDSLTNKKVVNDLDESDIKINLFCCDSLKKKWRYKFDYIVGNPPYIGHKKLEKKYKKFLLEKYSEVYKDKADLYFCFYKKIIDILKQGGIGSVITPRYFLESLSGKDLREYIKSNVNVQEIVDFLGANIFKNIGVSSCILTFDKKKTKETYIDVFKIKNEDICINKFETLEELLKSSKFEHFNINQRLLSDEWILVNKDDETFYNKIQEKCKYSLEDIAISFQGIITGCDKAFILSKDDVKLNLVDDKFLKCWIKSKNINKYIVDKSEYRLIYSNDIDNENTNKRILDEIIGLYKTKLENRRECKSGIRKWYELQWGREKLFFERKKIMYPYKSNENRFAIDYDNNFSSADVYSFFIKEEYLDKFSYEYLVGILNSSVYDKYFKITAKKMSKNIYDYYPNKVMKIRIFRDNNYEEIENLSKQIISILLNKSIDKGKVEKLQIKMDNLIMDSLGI
# B1: 14-bp CamA co-crystallization duplex (dsDNA)
# DNA 1: TTCAAAAAGTCCCA
# DNA 2: ATGGGACTTTTTGA
# Columns and labels:
# C. difficile CamA = target: T1, C. difficile CamA; assay: CamA methylation inhibition assay; format: biochemical; conditions: for Relative inhibition of CamA activity at a single inhibitor concentration: 50 μM inhibitor
# CamA [1] = target: T2, CamA; assay: ITC binding of inhibitors to CamA
# PRMT7 = conditions: read-out: IC50 PRMT7 activity; cited from earlier work
# [2] = test system: four human RNA adenine MTases and two bacterial DNA adenine MTases; assay: Selectivity: in vitro inhibition of other class I MTases; format: biochemical; conditions: four human RNA adenine MTases and two bacterial DNA adenine MTases (Figure 5)
# phage T4 Dam = conditions: read-out: Km of SAM for phage T4 Dam; cited from earlier work
# CamA [3] = target: T2, CamA; conditions: cited from earlier work
# M.TaqI = conditions: read-out: KD of SAM for M.TaqI; cited from earlier work
# E. coli Dam = conditions: read-out: Km of SAM for E. coli Dam; cited from earlier work
# [4] = target: T3, CamA (DNA adenine methyltransferase, …); assay: X-ray crystallography
molecule,measurement,setting,value
"CC(C)N(C[C@H]1O[C@@H](n2cnc3c(N)ncnc32)[C@H](O)[C@@H]1O)[C@H]1C[C@@H](CCc2nc3cc(C(C)(C)C)ccc3[nH]2)C1 [EPZ5676, pinometostat]",IC50,C. difficile CamA,> 250 µM
same,Relative inhibition of CamA activity at a single inhibitor concentration,C. difficile CamA,failed to inhibit CamA
same,Kd,CamA [1],> 50 µM
Nc1ncnc2c1ccn2[C@@H]1O[C@H]([C@H](O)c2ccccc2)[C@@H](O)[C@H]1O [LLY-283],Relative inhibition of CamA activity at a single inhibitor concentration,C. difficile CamA,much weaker inhibition than sinefungin
NCCCSC[C@H]1O[C@@H](n2cnc3c(N)ncnc32)[C@H](O)[C@@H]1O [SGC0911],IC50,PRMT7,1000 nM
CC(C)N(CCCNC(=O)Nc1ccc(C(C)(C)C)cc1)C[C@H]1O[C@@H](n2cc(Br)c3c(N)ncnc32)[C@H](O)[C@@H]1O [SGC0946],IC50,C. difficile CamA,4.7 µM
same,Relative inhibition of CamA activity at a single inhibitor concentration,C. difficile CamA,notable inhibition
same,Fold more potent inhibition of CamA (IC50) than EPZ004777,C. difficile CamA; SGC0946 vs. EPZ004777,~ 9 X
same,in vitro inhibition against six distinct MTase enzymes,[2],~ 50%
same,Kd,CamA [1],6.3 µM
same,Fold stronger binding to CamA (KD) than EPZ004777,CamA [1]; SGC0946 vs. EPZ004777,~ 3 X
CC(C)N(CCCNC(=O)Nc1ccc(C(C)(C)C)cc1)C[C@H]1O[C@@H](n2ccc3c(N)ncnc32)[C@H](O)[C@@H]1O [EPZ004777],Relative inhibition of CamA activity at a single inhibitor concentration,C. difficile CamA,notable inhibition
"C[S+](CC[C@H](N)C(=O)[O-])C[C@H]1O[C@@H](n2cnc3c(N)ncnc32)[C@H](O)[C@@H]1O (stereo partly drawn) [SAM, S-adenosyl-L-methionine]",Km,phage T4 Dam,500 nM
same,Kd,CamA [3]; read-out: KD of SAM binding by CamA,35 µM
same,Km,CamA [3]; read-out: Km of SAM for CamA,> 17 µM
same,Kd,M.TaqI,2000 nM
same,Km,E. coli Dam,3 to 6 µM
CC1=C(C)C(=O)C(C(C)(C)CC(=O)N(CCCCSC[C@H]2O[C@@H](n3cnc4c(N)ncnc43)[C@H](O)[C@@H]2O)Cc2cccc(-c3ccc(Cl)cc3)c2)=C(C)C1=O [SGC3027],Relative inhibition of CamA activity at a single inhibitor concentration,C. difficile CamA,does not possess in vitro inhibitory activity
B1,binding result,[4],binds
